# Legend:
# [1] = design: method as in PMID 32628359; settings: healthy volunteers, cited from earlier work
# [2] = system: patients with colorectal cancer; settings: SCO-101 with FOLFIRI, patients with prior progression on FOLFIRI, cited from earlier work
# [3] = PANTAX phase Ib: safety, DLT and MTD of SCO-101 with Gem and Nab; assay type: in vivo
# Procedure: ORR, clinical benefit rate (CBR), median progression free survival (mPFS), and mOS were included as secondary end points.
# Patients were recruited at four centers, two in Denmark and two in Germany.
# Study treatment is illustrated in Fig. 1. […] Chemotherapy with Gem and Nab was given days 6, 13, and 20 in each cycle. […] During the first cycle, patients received treatment with chemotherapy at a dose corresponding to 80% of the recommended dose, i.e., 100 mg/m^2 Nab and 800 mg/m^2 Gem given as infusions over 30 min. […] The dose of chemotherapy was further adjusted to the patient´s tolerability in accordance with the chemotherapy-product monographs. Standard antiemetics were allowed as was the use of granulocyte colony-stimulating factor (G-CSF) in case of treatment-induced neutropenia.
# Toxicity was assessed at baseline and weekly at days 1, 6, 13, and 20 before each treatment.
# [4] = 50 mg SCO-101 (cohort 1, 3 patients) + Gem/Nab, any CTC-AE grade
# [5] = 50 mg SCO-101 (cohort 1, 3 patients) + Gem/Nab, grade ≥ 3
# [6] = 100 mg SCO-101 (cohort 2, 3 patients) + Gem/Nab, any CTC-AE grade
# [7] = 150 mg SCO-101 (cohort 3, 6 patients) + Gem/Nab, any CTC-AE grade
# [8] = 150 mg SCO-101 (cohort 3, 6 patients) + Gem/Nab, grade ≥ 3
# [9] = 200 mg SCO-101 (cohort 4, 6 patients) + Gem/Nab, any CTC-AE grade
# [10] = 250 mg SCO-101 (cohort 5, 4 patients) + Gem/Nab, any CTC-AE grade
# [11] = 250 mg SCO-101 (cohort 5, 4 patients) + Gem/Nab, grade ≥ 3
# [12] = 22 patients, all dose levels, with Gem and Nab
# [13] = sum of cohorts (22 patients) + Gem/Nab, any CTC-AE grade
# [14] = sum of cohorts (22 patients) + Gem/Nab, grade ≥ 3
compound,measurement,setting,value
O=C(Nc1cc(C(F)(F)F)cc(C(F)(F)F)c1)Nc1ccc(Br)cc1-c1nnn[nH]1 [SCO-101],individuals who developed clinical jaundice,[1]; 150 mg dose cohort,Two
same,adverse events,[1]; single doses up to 200 mg or multiple doses up to 150 mg daily for 14 days,mild adverse events (AEs) and no serious adverse events (SAEs)
same,tumor response,[2]; 4 of 25 patients,16%
same,mOS,[2],10.4 months
same,"Alopecia, patients with treatment-related AE",[3]; [4],2
same,"Athralgia, patients with treatment-related AE",[3]; [4],1
same,"Chills, patients with treatment-related AE",[3]; [4],1
same,"Diarrhea, patients with treatment-related AE",[3]; [4],3
same,"Dizziness, patients with treatment-related AE",[3]; [4],1
same,"Fatigue, patients with treatment-related AE",[3]; [4],3
same,"Headache, patients with treatment-related AE",[3]; [4],1
same,"Hypertension, patients with treatment-related AE",[3]; [4],1
same,"Nail disorder, patients with treatment-related AE",[3]; [4],1
same,"Nausea, patients with treatment-related AE",[3]; [4],3
same,"Pain, patients with treatment-related AE",[3]; [4],2
same,"Paraestesia, patients with treatment-related AE",[3]; [4],1
same,"Rash, patients with treatment-related AE",[3]; [4],2
same,"↑B-bilirubin, patients with treatment-related AE",[3]; [4],2
same,"↑B-lactate, patients with treatment-related AE",[3]; [4],1
same,"↓B-hemoglobin, patients with treatment-related AE",[3]; [4],2
same,"↓B-lymphocytes, patients with treatment-related AE",[3]; [4],3
same,"↓B-neutrophils, patients with treatment-related AE",[3]; [4],3
same,"↓B-thrombocytes, patients with treatment-related AE",[3]; [4],3
same,"Chills, patients with treatment-related AE",[3]; [5],1
same,"Hypertension, patients with treatment-related AE",[3]; [5],1
same,"↑B-lactate, patients with treatment-related AE",[3]; [5],1
same,"↓B-lymphocytes, patients with treatment-related AE",[3]; [5],2
same,"↓B-neutrophils, patients with treatment-related AE",[3]; [5],3
same,"Alopecia, patients with treatment-related AE",[3]; [6],2
same,"Candidiasis, patients with treatment-related AE",[3]; [6],1
same,"Diarrhea, patients with treatment-related AE",[3]; [6],3
same,"Dysgeusia, patients with treatment-related AE",[3]; [6],1
same,"Fatigue, patients with treatment-related AE",[3]; [6],1
same,"Nail disorder, patients with treatment-related AE",[3]; [6],1
same,"Nausea, patients with treatment-related AE",[3]; [6],3
same,"Oedema, patients with treatment-related AE",[3]; [6],1
same,"Paraestesia, patients with treatment-related AE",[3]; [6],2
same,"Rash, patients with treatment-related AE",[3]; [6],2
same,"Stomatitis, patients with treatment-related AE",[3]; [6],1
same,"↑B-bilirubin, patients with treatment-related AE",[3]; [6],1
same,"↓B-hemoglobin, patients with treatment-related AE",[3]; [6],1
same,"↓B-neutrophils, patients with treatment-related AE",[3]; [6],1
same,"Paraestesia, patients with treatment-related AE","[3]; 100 mg SCO-101 (cohort 2, 3 patients) + Gem/Nab, grade ≥ 3",1
same,"Alopecia, patients with treatment-related AE",[3]; [7],2
same,"Athralgia, patients with treatment-related AE",[3]; [7],1
same,"Candidiasis, patients with treatment-related AE",[3]; [7],1
same,"Constipation, patients with treatment-related AE",[3]; [7],1
same,"Diarrhea, patients with treatment-related AE",[3]; [7],3
same,"Fatigue, patients with treatment-related AE",[3]; [7],2
same,"Headache, patients with treatment-related AE",[3]; [7],1
same,"Jaundice, patients with treatment-related AE",[3]; [7],1
same,"Nausea, patients with treatment-related AE",[3]; [7],2
same,"Pain, patients with treatment-related AE",[3]; [7],1
same,"Rash, patients with treatment-related AE",[3]; [7],1
same,"Stomatitis, patients with treatment-related AE",[3]; [7],2
same,"TTP, patients with treatment-related AE",[3]; [7],1
same,"Vomitting, patients with treatment-related AE",[3]; [7],2
same,"↑B-bilirubin, patients with treatment-related AE",[3]; [7],2
same,"↓B-hemoglobin, patients with treatment-related AE",[3]; [7],4
same,"↓B-neutrophils, patients with treatment-related AE",[3]; [7],1
same,"↓B-thrombocytes, patients with treatment-related AE",[3]; [7],1
same,"Fatigue, patients with treatment-related AE",[3]; [8],1
same,"Jaundice, patients with treatment-related AE",[3]; [8],1
same,"TTP, patients with treatment-related AE",[3]; [8],1
same,"↑B-bilirubin, patients with treatment-related AE",[3]; [8],1
same,"↓B-hemoglobin, patients with treatment-related AE",[3]; [8],2
same,blood bilirubin in the DLT case,"[3]; 150 mg SCO-101, one patient",24 µmol/L
same,"Alopecia, patients with treatment-related AE",[3]; [9],4
same,"Constipation, patients with treatment-related AE",[3]; [9],1
same,"Diarrhea, patients with treatment-related AE",[3]; [9],2
same,"Dizziness, patients with treatment-related AE",[3]; [9],1
same,"Dysgeusia, patients with treatment-related AE",[3]; [9],1
same,"Fatigue, patients with treatment-related AE",[3]; [9],4
same,"Headache, patients with treatment-related AE",[3]; [9],1
same,"Jaundice, patients with treatment-related AE",[3]; [9],1
same,"Loss of appetite, patients with treatment-related AE",[3]; [9],2
same,"Nausea, patients with treatment-related AE",[3]; [9],3
same,"Oedema, patients with treatment-related AE",[3]; [9],1
same,"Pain, patients with treatment-related AE",[3]; [9],2
same,"Paraestesia, patients with treatment-related AE",[3]; [9],1
same,"Rash, patients with treatment-related AE",[3]; [9],2
same,"Stomatitis, patients with treatment-related AE",[3]; [9],4
same,"Vomitting, patients with treatment-related AE",[3]; [9],1
same,"↑B-bilirubin, patients with treatment-related AE",[3]; [9],4
same,"↓B-hemoglobin, patients with treatment-related AE",[3]; [9],3
same,"↓B-neutrophils, patients with treatment-related AE",[3]; [9],1
same,"↓B-thrombocytes, patients with treatment-related AE",[3]; [9],2
same,"↓B-neutrophils, patients with treatment-related AE","[3]; 200 mg SCO-101 (cohort 4, 6 patients) + Gem/Nab, grade ≥ 3",1
same,"Candidiasis, patients with treatment-related AE",[3]; [10],1
same,"Constipation, patients with treatment-related AE",[3]; [10],1
same,"Dysgeusia, patients with treatment-related AE",[3]; [10],1
same,"Fatigue, patients with treatment-related AE",[3]; [10],2
same,"Jaundice, patients with treatment-related AE",[3]; [10],1
same,"Nausea, patients with treatment-related AE",[3]; [10],2
same,"Paraestesia, patients with treatment-related AE",[3]; [10],3
same,"Rash, patients with treatment-related AE",[3]; [10],1
same,"↑B-bilirubin, patients with treatment-related AE",[3]; [10],2
same,"↓B-hemoglobin, patients with treatment-related AE",[3]; [10],1
same,"↓B-neutrophils, patients with treatment-related AE",[3]; [10],1
same,"↓B-thrombocytes, patients with treatment-related AE",[3]; [10],2
same,"↓B-neutrophils, patients with treatment-related AE",[3]; [11],1
same,"↓B-thrombocytes, patients with treatment-related AE",[3]; [11],2
same,cases of clinical jaundice associated with bilirubin elevation,"[3]; 22 patients, all dose levels",three
same,patients with SAEs (nineteen SAEs),"[3]; 22 patients, all dose levels",11 patients
same,suspected unexpected serious adverse reactions (SUSARs),"[3]; 22 patients, all dose levels",No suspected unexpected serious adverse reactions
same,cases with elevation of blood bilirubin,[3]; [12],55%
same,patients with a SCO-101-related AE grade 4 (thrombocytopenia),[3]; [12],9%
same,maximum tolerated dose (MTD),"[3]; SCO-101 daily for 6 days, bi-weekly schedule, with 80% dose of Gem and Nab, PDAC patients",200 mg
same,"dose-limiting toxicities (DLTs), first cycle","[3]; dose level 3, 150 mg SCO-101, six patients, with Gem and Nab",One
same,"dose-limiting toxicities (DLTs), first cycle","[3]; dose level 4, 200 mg SCO-101, with Gem and Nab",No DLTs
same,"dose-limiting toxicities (DLTs), first cycle","[3]; dose level 5, 250 mg SCO-101, thrombocytopenia AE grade 4, with Gem and Nab",two
same,time to resolution of bilirubin elevation,[3]; not accompanied by biochemical hepatotoxicity,≤ 1 week
same,SAEs deemed related to SCO-101,"[3]; of nineteen SAEs, transiently increased blood bilirubin AE grade 3 at 150 mg SCO-101",one
same,"Alopecia, patients with treatment-related AE",[3]; [13],10
same,"Athralgia, patients with treatment-related AE",[3]; [13],2
same,"Candidiasis, patients with treatment-related AE",[3]; [13],3
same,"Chills, patients with treatment-related AE",[3]; [13],1
same,"Constipation, patients with treatment-related AE",[3]; [13],3
same,"Diarrhea, patients with treatment-related AE",[3]; [13],11
same,"Dizziness, patients with treatment-related AE",[3]; [13],2
same,"Dysgeusia, patients with treatment-related AE",[3]; [13],3
same,"Fatigue, patients with treatment-related AE",[3]; [13],12
same,"Headache, patients with treatment-related AE",[3]; [13],3
same,"Hypertension, patients with treatment-related AE",[3]; [13],1
same,"Jaundice, patients with treatment-related AE",[3]; [13],3
same,"Loss of appetite, patients with treatment-related AE",[3]; [13],2
same,"Nail disorder, patients with treatment-related AE",[3]; [13],2
same,"Nausea, patients with treatment-related AE",[3]; [13],13
same,"Oedema, patients with treatment-related AE",[3]; [13],2
same,"Pain, patients with treatment-related AE",[3]; [13],5
same,"Paraestesia, patients with treatment-related AE",[3]; [13],7
same,"Rash, patients with treatment-related AE",[3]; [13],8
same,"Stomatitis, patients with treatment-related AE",[3]; [13],7
same,"TTP, patients with treatment-related AE",[3]; [13],1
same,"Vomitting, patients with treatment-related AE",[3]; [13],3
same,"↑B-lactate, patients with treatment-related AE",[3]; [13],1
same,"↓B-hemoglobin, patients with treatment-related AE",[3]; [13],11
same,"↓B-lymphocytes, patients with treatment-related AE",[3]; [13],3
same,"↓B-neutrophils, patients with treatment-related AE",[3]; [13],7
same,"↓B-thrombocytes, patients with treatment-related AE",[3]; [13],8
same,"Chills, patients with treatment-related AE",[3]; [14],1
same,"Fatigue, patients with treatment-related AE",[3]; [14],1
same,"Hypertension, patients with treatment-related AE",[3]; [14],1
same,"Jaundice, patients with treatment-related AE",[3]; [14],1
same,"Paraestesia, patients with treatment-related AE",[3]; [14],1
same,"TTP, patients with treatment-related AE",[3]; [14],1
same,"↑B-lactate, patients with treatment-related AE",[3]; [14],1
same,"↓B-hemoglobin, patients with treatment-related AE",[3]; [14],2
same,"↓B-lymphocytes, patients with treatment-related AE",[3]; [14],2
same,"↓B-neutrophils, patients with treatment-related AE",[3]; [14],5
same,"↓B-thrombocytes, patients with treatment-related AE",[3]; [14],2

# From paper PMC12048447, “PANTAX: a phase Ib clinical trial of the efflux pump inhibitor SCO-101 in combination with gemcitabine and nab-paclitaxel in non-resectable or metastatic pancreatic cancer” (Investigational New Drugs, 2025)
